{"source": "patent US20260109688A1", "about": "“NOVEL ANTIBIOTIC COMPOUND” (SINTEF TTO AS, priority 2022, published 2026)", "key": {"E. faecium CTC 492": {"test_system": "E. faecium CTC 492", "assay": "In vitro MIC bioassay (broth microdilution, 384 well)", "assay_type": "cell-based, Enterococcus faecium", "settings": "Mueller-Hinton broth, 2.7% DMSO", "procedure": "(§1) Minimal inhibitory concentrations against a selection of Gram-positive indicator organisms (MICs) were determined according to Clinical and Laboratory Standards Institute protocols by microdilution tests using in a 384 well format. The indicator strains were incubated in TSB medium over night until OD600-0.4, then diluted to OD600=0.1 in TSB medium and further 45× in assay medium (Mueller-Hinton broth, Difco). Inoculated medium was distributed into assay plates. Inoculated wells were added a 2× dilution series of either isolated compound or vancomycin (reference) diluted in DMSO, giving a final DMSO concentration in each well of 2.7%, and final concentrations of active compound between 0 and 540 μg/ml (23 different concentrations). Four parallels were assayed for each compound and concentration. 0.5 mg of the compound produced by strain M1152ΔmatAB (P08-G05_C16) was purified on preparative HPLC, and the pure compound was tested in bioassay against a panel of strains. The indicator organisms were M. luteus ATCC 9341, Staphylococcus aureus ATCC 29213, Staphylococcus aureus ATCC 43300 (MRSA), Enterococcus faecium CCUG 37832, Enterococcus faecium CTC 492."}, "E. faecium CCUG 37832": {"test_system": "E. faecium CCUG 37832", "assay": "In vitro MIC bioassay (broth microdilution, 384 well)", "assay_type": "cell-based, Enterococcus faecium", "settings": "Mueller-Hinton broth, 2.7% DMSO", "procedure": "as §1"}}}
{"compound": "CN[C@H](CC(C)C)C(=O)N[C@H]1C(=O)N[C@@H](CC(N)=O)C(=O)N[C@H]2C(=O)N[C@H]3C(=O)N[C@H](C(=O)N[C@H](C(=O)O)c4cc(O)cc(O)c4-c4cc3ccc4O)[C@H](O)c3ccc(c(Cl)c3)Oc3cc2cc(c3O[C@@H]2O[C@H](CO)[C@@H](O)[C@H](O)[C@H]2O[C@H]2C[C@](C)(N)[C@H](O)[C@H](C)O2)Oc2ccc(cc2Cl)[C@H]1O", "note": "[Vancomycin, vancomycin]", "values": [{"measurement": "MIC70: E. faecium CTC 492", "setting": "E. faecium CTC 492", "result": 1.06, "unit": "µg/mL"}, {"measurement": "MIC70: E. faecium CCUG 37832", "setting": "E. faecium CCUG 37832", "result": 270, "unit": "µg/mL"}]}
